Laboratory results published in ChEMBL document CHEMBL1146822, “Adenine derived inhibitors of the molecular chaperone HSP90-SAR explained through multiple X-ray structures” (Bioorg Med Chem Lett, 2004).

Test system: HCT-116
Assay: Cellular activity against human colon tumor cell line, HCT116
Type: functional

SMILES | GI50 [µM]
C#CCCCn1c(Cc2cc(OC)c(OC)c(OC)c2Cl)nc2c(N)nc(F)nc21 | 3.9
C#CCCCn1c(Cc2cc(OC)ccc2OC)nc2c(N)nc(F)nc21 | 3.3
CCCCn1c(Cc2cc(OC)ccc2OC)nc2c(N)nc(F)nc21 | 3.4
